Source: patent publication US20240350493A1 (Kadmon Corporation, LLC, priority 2022, published 2024)
Like-named read-outs stand apart in the source and are kept apart here.

How the values were obtained:
human serum albumin = human serum albumin (Homo sapiens, UniProt P02768); experiment: protein binding in vitro; format: in vitro ADME
BCRP = BCRP (Homo sapiens, UniProt Q9UNQ0); experiment: transporter inhibition, in vitro; format: in vitro ADME; conditions: at clinically relevant concentrations
pregnant rabbits = conditions: female, rabbit, in vivo, po
CYP2C19 = CYP2C19 (Homo sapiens, UniProt P33261); experiment: enzyme inhibition, in vitro; format: in vitro ADME
Sequence of CYP2C19 (P33261 whole entry): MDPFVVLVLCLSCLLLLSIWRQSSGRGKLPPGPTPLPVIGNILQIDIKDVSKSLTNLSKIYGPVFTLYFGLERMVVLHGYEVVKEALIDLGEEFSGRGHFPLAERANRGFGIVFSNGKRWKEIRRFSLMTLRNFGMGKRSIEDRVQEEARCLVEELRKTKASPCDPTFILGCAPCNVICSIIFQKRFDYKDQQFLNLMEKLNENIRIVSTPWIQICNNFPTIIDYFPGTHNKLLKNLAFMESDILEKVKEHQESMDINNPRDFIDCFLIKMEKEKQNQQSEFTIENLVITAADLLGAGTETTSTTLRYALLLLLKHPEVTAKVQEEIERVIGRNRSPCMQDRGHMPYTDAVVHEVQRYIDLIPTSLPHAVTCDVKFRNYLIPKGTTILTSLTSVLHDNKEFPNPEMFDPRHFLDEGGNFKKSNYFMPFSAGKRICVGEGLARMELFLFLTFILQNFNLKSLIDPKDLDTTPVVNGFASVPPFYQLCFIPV

UGT1A1 = UGT1A1 (Homo sapiens, UniProt P22309); experiment: enzyme inhibition, in vitro; format: in vitro ADME
Sequence of UGT1A1 (P22309 26-533): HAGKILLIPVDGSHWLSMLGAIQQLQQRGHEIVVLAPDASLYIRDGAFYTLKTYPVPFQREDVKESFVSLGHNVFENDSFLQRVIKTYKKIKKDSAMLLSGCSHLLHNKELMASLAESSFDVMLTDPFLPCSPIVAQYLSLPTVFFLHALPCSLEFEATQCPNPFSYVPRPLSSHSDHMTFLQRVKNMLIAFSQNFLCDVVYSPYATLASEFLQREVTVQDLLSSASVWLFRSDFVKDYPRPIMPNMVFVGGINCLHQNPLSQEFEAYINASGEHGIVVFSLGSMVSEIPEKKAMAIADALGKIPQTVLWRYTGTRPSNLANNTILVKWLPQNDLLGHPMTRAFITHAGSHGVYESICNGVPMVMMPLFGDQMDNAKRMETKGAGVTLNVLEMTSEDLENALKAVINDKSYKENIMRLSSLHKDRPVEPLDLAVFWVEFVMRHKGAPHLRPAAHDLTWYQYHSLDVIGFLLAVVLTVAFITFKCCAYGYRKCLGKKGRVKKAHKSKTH

[1] = relative bioavailability/food effect study, tablet and capsule (KD025-106); format: in vivo, human; conditions: for AUC(0-t) / AUC(0-inf) / Cmax / Tmax / half-life: male, human, plasma, oral, 200 mg
Procedure: Both studies were single-center, open-label, randomized, single dose crossover studies in healthy males.
In the second, relative bioavailability/food effect study, both the marketed tablets and earlier formulation capsules were investigated.
For Treatments B and C, before dosing, subjects consumed a high-fat breakfast consisting of a hash brown, bacon, fried egg, white bread, and 240 mL of full fat milk over 25 minutes. […] All subjects were to receive each treatment, with at least a 6-day washout between each period. Water was permitted ad libitum in all study periods, besides for 1 hour pre-and post-dose.
In both studies, serial blood samples for PK analysis were collected at pre-dose and 1, 2, 4, 6, 8, 12, 16, 24, and 36 hours post-dose. An additional sample at 30 hours post-dose was collected in the first study; additional samples were collected 3, 5, and 48 hours post-dose in the second study. Blood samples (5-6 mL per sample) were collected in K3EDTA tubes on ice and were processed within 30 minutes of collection, then frozen at approximately-70 to −80° C. shortly after collection.
Sample preparation was performed by protein precipitation.
Statistical analyses were performed in SAS using the PROC MIXED procedure and the Restricted Maximum Likelihood estimation method. In both studies, the presence of a food effect was evaluated by a formal statistical analysis on natural log-transformed AUC and Cmax using mixed effect modeling techniques. The model included treatment, period, and sequence as fixed effects and subject nested within sequence as a random effect. Adjusted geometric mean ratios (GMRs) and their 90% confidence intervals (CIs) were calculated for fed (test) versus fasted (reference) treatments. The absence of a food effect was to be concluded if the 90% CI was within the bioequivalence limits of 80.00 to 125.00%.
To assess relative bioavailability between formulations in the second study, the same analysis was performed for tablets (test) versus capsules (reference), both in the fed state. For both studies, all subjects who received at least one dose of study drug and had post-dose PK data available were included in the PK population

rat bone marrow = experiment: in vivo rat bone marrow micronucleus assay
[2] = 200 mg tablet, high-fat breakfast

Sequence of BCRP (Q9UNQ0 whole entry): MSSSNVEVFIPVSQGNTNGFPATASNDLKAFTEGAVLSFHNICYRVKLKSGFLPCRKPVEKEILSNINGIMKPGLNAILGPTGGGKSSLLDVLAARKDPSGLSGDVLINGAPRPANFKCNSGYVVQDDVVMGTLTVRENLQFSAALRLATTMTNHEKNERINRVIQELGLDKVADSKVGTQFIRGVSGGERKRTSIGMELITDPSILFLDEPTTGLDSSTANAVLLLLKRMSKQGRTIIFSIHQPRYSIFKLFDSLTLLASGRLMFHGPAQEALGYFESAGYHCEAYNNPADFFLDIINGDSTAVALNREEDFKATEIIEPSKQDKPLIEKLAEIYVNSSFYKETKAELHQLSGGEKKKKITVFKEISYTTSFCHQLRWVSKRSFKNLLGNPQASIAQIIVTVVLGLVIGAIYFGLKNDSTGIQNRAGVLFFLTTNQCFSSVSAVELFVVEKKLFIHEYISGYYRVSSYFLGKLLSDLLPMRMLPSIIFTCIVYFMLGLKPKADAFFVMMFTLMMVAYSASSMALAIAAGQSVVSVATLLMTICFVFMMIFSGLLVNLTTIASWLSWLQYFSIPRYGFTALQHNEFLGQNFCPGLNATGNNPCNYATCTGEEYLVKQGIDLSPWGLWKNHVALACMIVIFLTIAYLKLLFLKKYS
Sequence of human serum albumin (P02768 25-609): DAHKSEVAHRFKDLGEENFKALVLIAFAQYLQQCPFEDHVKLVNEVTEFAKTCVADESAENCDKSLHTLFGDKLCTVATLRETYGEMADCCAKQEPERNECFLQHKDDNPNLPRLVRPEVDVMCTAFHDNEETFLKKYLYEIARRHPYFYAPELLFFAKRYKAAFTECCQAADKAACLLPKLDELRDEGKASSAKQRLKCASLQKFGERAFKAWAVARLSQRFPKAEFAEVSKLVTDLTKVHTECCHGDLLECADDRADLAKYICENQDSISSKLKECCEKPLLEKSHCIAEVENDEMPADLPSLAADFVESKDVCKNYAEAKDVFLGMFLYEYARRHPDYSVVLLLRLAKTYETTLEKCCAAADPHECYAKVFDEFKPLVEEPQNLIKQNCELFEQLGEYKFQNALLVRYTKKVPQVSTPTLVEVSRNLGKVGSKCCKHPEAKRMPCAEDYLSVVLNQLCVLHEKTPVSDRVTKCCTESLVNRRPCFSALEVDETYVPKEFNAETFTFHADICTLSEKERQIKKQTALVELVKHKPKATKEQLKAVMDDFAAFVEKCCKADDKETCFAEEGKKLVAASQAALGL

CC(C)NC(=O)COc1cccc(-c2nc(Nc3ccc4[nH]ncc4c3)c3ccccc3n2)c1 [Belumosudil, 2-{3-[4-(1H-indazol-5-ylamino)-2-quinazolinyl]phenoxy}-N-(propan-2-yl) acetamide]
binding to human serum albumin (human serum albumin): 99.9%
BCRP inhibition (BCRP): inhibits
doses with embryo-fetal effects (pregnant rabbits): ≥ 50 mg/kg/day
doses with maternal toxicity (body weight loss and mortality) (pregnant rabbits): ≥ 125 mg/kg/day
CYP2C19 inhibition (CYP2C19): inhibitor
UGT1A1 inhibition (UGT1A1): inhibitor
reduction of inter-subject variability in exposure with food ([1]; 200 mg tablet): approximately 60%
AUC% extrap, arithmetic mean (SD) ([1]; 200 mg tablet, fasted): 8.38 (9.05) %
AUC% extrap, geometric mean (geometric CV %) ([1]; 200 mg tablet, fasted): 6.02 (90.8); %
AUC% extrap, arithmetic mean (SD) ([1]; 200 mg tablet, fed): 1.71 (0.71) %
AUC% extrap, geometric mean (geometric CV %) ([1]; 200 mg tablet, fed): 1.55 (50.3); %
AUCinf fed as % of fasted [1, 2]: 180%
Cmax fed as % of fasted [1, 2]: 225%
AUC(0-t) ([1]; 200 mg tablet, fasted, read-out: AUC0-24, arithmetic mean (SD)): 5400 ng·h/mL
AUC(0-t) ([1]; 200 mg tablet, fasted, read-out: AUC0-24, geometric mean (geometric CV %)): 4250 ng·h/mL
AUC(0-inf) ([1]; 200 mg tablet, fasted, read-out: AUCinf, arithmetic mean (SD)): 6670 ng·h/mL
AUC(0-inf) ([1]; 200 mg tablet, fasted, read-out: AUCinf, geometric mean (geometric CV %)): 4910 ng·h/mL
AUC(0-t) ([1]; 200 mg tablet, fasted, read-out: AUClast, arithmetic mean (SD)): 5830 ng·h/mL
AUC(0-t) ([1]; 200 mg tablet, fasted, read-out: AUClast, geometric mean (geometric CV %)): 4520 ng·h/mL
Cmax ([1]; 200 mg tablet, fasted, read-out: Cmax, arithmetic mean (SD)): 1110 ng/mL
Cmax ([1]; 200 mg tablet, fasted, read-out: Cmax, geometric mean (geometric CV %)): 821 ng/mL
Tmax ([1]; 200 mg tablet, fasted, read-out: Tmax, median (range)): 2 h
half-life ([1]; 200 mg tablet, fasted, read-out: t1/2, arithmetic mean (SD) (converted)): 12.2 h
half-life ([1]; 200 mg tablet, fasted, read-out: t1/2, geometric mean (geometric CV %) (converted)): 11.2 h
AUC(0-t) ([1]; 200 mg tablet, fed, read-out: AUC0-24, arithmetic mean (SD)): 10600 ng·h/mL
AUC(0-t) ([1]; 200 mg tablet, fed, read-out: AUC0-24, geometric mean (geometric CV %)): 9580 ng·h/mL
AUC(0-inf) ([1]; 200 mg tablet, fed, read-out: AUCinf, arithmetic mean (SD)): 11300 ng·h/mL
AUC(0-inf) ([1]; 200 mg tablet, fed, read-out: AUCinf, geometric mean (geometric CV %)): 10100 ng·h/mL
AUC(0-t) ([1]; 200 mg tablet, fed, read-out: AUClast, arithmetic mean (SD)): 10800 ng·h/mL
AUC(0-t) ([1]; 200 mg tablet, fed, read-out: AUClast, geometric mean (geometric CV %)): 9750 ng·h/mL
Cmax ([1]; 200 mg tablet, fed, read-out: Cmax, arithmetic mean (SD)): 2320 ng/mL
Cmax ([1]; 200 mg tablet, fed, read-out: Cmax, geometric mean (geometric CV %)): 2100 ng/mL
Tmax ([1]; 200 mg tablet, fed, read-out: Tmax, median (range)): 2.5 h
half-life ([1]; 200 mg tablet, fed, read-out: t1/2, arithmetic mean (SD) (converted)): 7.59 h
half-life ([1]; 200 mg tablet, fed, read-out: t1/2, geometric mean (geometric CV %) (converted)): 6.98 h
Tmax ([1]; 200 mg tablet, read-out: delay in Tmax with fed administration): 0.5 h
exposure (Cmax and AUC) higher for tablet versus capsule ([1]; single dose 200 mg, fed state): 17-19%
genotoxicity (rat bone marrow): not genotoxic
